From patent US20240156971A1, “METHODS AND SORTILIN BINDING CONJUGATE COMPOUNDS FOR TARGETING CANCER STEM CELLS” (TRANSFERT PLUS, SOCIÉTÉ EN COMMANDITE, priority 2021, published 2024)
Square brackets hold non-standard residues; d marks the D form. Ends that are not written are not given here. Alexa Fluor 488 = Alexa Fluor 488 C5-maleimide dye; Nle = CCCC[C@H](N)C(=O)O

Assays:
ovarian hOCSC xenografts = assay: hOCSC xenografts treated with single agents or combined with carboplatin; format: in vivo, mice; conditions: docetaxel 10 mg/kg; TH1902 23 mg/kg; paclitaxel 10 mg/kg; carboplatin 40 mg/kg; day 18
Method: Mice bearing ovarian hOCSC xenografts were treated with vehicle, docetaxel, paclitaxel, TH1902 or carboplatin, and other groups of mice were administered carboplatin in combination with either docetaxel, paclitaxel or TH1902. To minimize the risk of side effects resulting from combining treatments, the dosages used for each drug were reduced to the following: docetaxel 10 mg/kg; TH1902 23 mg/kg (equivalent to the docetaxel dosage); paclitaxel 10 mg/kg; carboplatin 40 mg/kg (unchanged).

hBCSCs = assay: Internalization of TH19P01-Alexa Fluor 488 by hBCSCs (flow cytometry); format: cell-based, human; conditions: 200 nM, 2 hours, vs vehicle-treated cells
Method: Assessment of Intracellular Fluorescence with TH19P01-Alexa Fluor™ 488. hBCSC were grown in 12-well plates in complete media for 24 hours. […] In another experiment, siScrambled- or siSORT1-transfected cells were washed with HBSS and incubated in HBSS in the presence or absence of 200 nM Alexa Fluor™ 488-labeled TH19P01. For both types of experiments, after 2 hours of incubation at 37° C., cells were washed with HBSS, trypsinized, washed again and fluorescence assessed in the FL1 channel using a C6 Accuri™ flow cytometer (BD Biosciences, San Jose, CA).

Sortilin = molecular target: T1, Sortilin (Homo sapiens, UniProt Q99523); assay: Uptake of TH19P01-Alexa Fluor 488 by hBCSCs in the presence of competing Sortilin ligands; format: cell-based; conditions: 200 nM fluorescent peptide, 2 h, 10 μM neurotensin, 50 μM TH19P01 or 1 nM progranulin
T1 construct: host or cells: human triple-negative breast cancer stem cells (hBCSCs)
T1 sequence (Q99523 78-831): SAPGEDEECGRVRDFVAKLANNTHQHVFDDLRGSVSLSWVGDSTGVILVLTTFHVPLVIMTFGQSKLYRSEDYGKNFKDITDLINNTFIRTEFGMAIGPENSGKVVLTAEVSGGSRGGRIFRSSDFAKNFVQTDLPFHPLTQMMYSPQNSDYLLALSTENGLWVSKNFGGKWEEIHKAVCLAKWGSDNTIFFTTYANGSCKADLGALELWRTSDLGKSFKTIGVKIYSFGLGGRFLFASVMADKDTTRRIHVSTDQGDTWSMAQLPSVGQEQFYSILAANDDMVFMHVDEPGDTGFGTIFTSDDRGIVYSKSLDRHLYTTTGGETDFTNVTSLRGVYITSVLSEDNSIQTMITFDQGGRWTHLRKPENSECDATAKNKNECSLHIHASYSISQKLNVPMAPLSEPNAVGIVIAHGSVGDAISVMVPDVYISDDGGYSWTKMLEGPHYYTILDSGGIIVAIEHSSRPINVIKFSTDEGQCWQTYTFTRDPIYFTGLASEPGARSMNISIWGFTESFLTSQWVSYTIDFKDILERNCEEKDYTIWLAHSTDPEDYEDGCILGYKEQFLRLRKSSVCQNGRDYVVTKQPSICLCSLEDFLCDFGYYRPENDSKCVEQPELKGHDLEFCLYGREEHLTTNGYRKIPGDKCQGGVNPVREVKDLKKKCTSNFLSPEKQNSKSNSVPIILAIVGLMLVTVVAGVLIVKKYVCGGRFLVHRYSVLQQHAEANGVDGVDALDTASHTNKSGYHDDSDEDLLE

Molecule: N.N.O=C([O-])C1(C(=O)[O-])CCC1.[Pt+2] [carboplatin]
- inhibition of tumor growth, single agent (ovarian hOCSC xenografts): practically equivalent to that seen with docetaxel

Molecule: TH19P01-Alexa Fluor™ 488 (GVRAKAGVRN[Nle]FKSESYC(Alexa Fluor 488))
- fluorescent signal in cells versus background fluorescence (hBCSCs): an order of magnitude greater than the background fluorescence

Molecule: progranulin [reference compound]
- decrease of intracellular fluorescence (internalization of TH19P01-Alexa Fluor 488) by competing agent (Sortilin): decrease significantly (p<0.01) by about half

Molecule: GVRAKAGVRN(Nle)FKSESY (GVRAKAGVRN[Nle]FKSESY) [TH19P01]
- decrease of intracellular fluorescence (internalization of TH19P01-Alexa Fluor 488) by competing agent (Sortilin): decrease significantly (p<0.01) by about half

Molecule: CC(=O)O[C@H]1C(=O)[C@@]2(C)[C@H]([C@H](OC(=O)c3ccccc3)[C@]3(O)C[C@H](OC(=O)[C@H](O)[C@@H](NC(=O)c4ccccc4)c4ccccc4)C(C)=C1C3(C)C)[C@]1(OC(C)=O)CO[C@@H]1C[C@@H]2O [Paclitaxel, paclitaxel]
- inhibition of tumor growth, single agent (ovarian hOCSC xenografts): practically equivalent to that seen with docetaxel
